Reference: patent US12215106B2, “Pharmaceutical compounds and therapeutic methods” (RUTGERS, THE STATE UNIVERSITY OF NEW JERSEY, priority 2018, dated 2025)
Where a name gives a salt, the structure may show the parent alone. Read-outs that look alike come from different tables or passages of the source.

Experiment: Plasma pharmacokinetics and brain distribution after single IV, IP and oral administration
Format: in vivo
Details: for Kp at 0.08 h / Kp at 0.35 h / Kp at 1 h / Kp at 3 h / Kp at 6 h: read-out: Brain-to-plasma ratio
Experimental: (§1) The objective of this study was to investigate the plasma pharmacokinetics and brain distribution of Compound (14 in male C57BL/6 mice following a single intravenous, intraperitoneal and oral administration. A group of sixty-three male mice were divided into three groups (Group 1: 2 mg/kg/IV; Group 2: 10 mg/kg/IP and Group 3: 10 mg/kg/PO) with each group comprising of twenty-one mice.
Animals in Group 1 were administered intravenously with Compound 15 solution formulation in 5% NMP, 5% Solutol HS-15, 30% PEG-400 and 60% Captisol (20% w/v) at 2 mg/kg dose. […] Considering mortality intravenous dose was reduced to 2 mg/kg.
Animals in Group 2 and 3 were administered with Compound 15 solution formulation in 5% NMP, 5% Solutol HS-15, 30% PEG-400 and 60% Captisol (20% w/v) at a dose of 10 mg/kg by intraperitoneal and oral route respectively.
(§2) Blood samples (approximately 60 μL) were collected under light isoflurane anesthesia from retro orbital plexus from a set of three mice at 0.08, 0.35, 1, 3, 6, 12 and 24 hr. Plasma samples were separated by centrifugation of whole blood and stored below −70±10° C. until bioanalysis. Immediately after collection of blood, brain samples were collected from set of three mice at each time point. Brain samples were homogenized using ice-cold phosphate buffer saline (pH-7.4) in a ratio of 2 (buffer):1(brain); and homogenates were stored below −70±10° C. until analysis. Total homogenate volume was three times the brain weight. All samples were processed for analysis by protein precipitation using acetonitrile and analyzed with fit-for-purpose LC/MS/MS method (LLOQ2.00 ng/mL for plasma and 3.00 ng/g for brain). Pharmacokinetic parameters were calculated using the non-compartmental analysis tool of Phoenix WinNonlin® (Version 7.0). Pharmacokinetic parameters of Compound 15 are summarized below.
as §1, with “Compound 16” for “Compound (14”, “1: 10” for “1: 2”
Animals in Group 1 were administered intravenously with Compound 16 solution formulation in 5% NMP, 5% Solutol HS-15 and 90% normal saline at 10 mg/kg dose.
Animals in Group 2 and 3 were administered with Compound 16 solution formulation in 5% NMP, 5% Solutol HS-15 and 90% normal saline at a dose of 10 mg/kg by intraperitoneal and oral route respectively.
as §2, with “(LLOQ—1.00” for “(LLOQ2.00”, “16” for “15”
as §1, with “17” for “(14”, “mice. […]” for “mice.”

[1] = male, C57BL/6, mouse, brain, ip, 10 mg/kg, IP 10 mg/kg
[2] = male, C57BL/6, mouse, brain, po, 10 mg/kg, PO 10 mg/kg
[3] = male, C57BL/6, mouse, in vivo, ip, 10 mg/kg
[4] = male, C57BL/6, mouse, in vivo, ip, 10 mg/kg, 12 h
[5] = male, C57BL/6, mouse, in vivo, ip, 10 mg/kg, 24 h
[6] = male, C57BL/6, mouse, in vivo, ip, 10 mg/kg, Brain concentration, individual animal
[7] = male, C57BL/6, mouse, in vivo, ip, 10 mg/kg, Mean brain conc.
[8] = male, C57BL/6, mouse, in vivo, ip, 10 mg/kg, Mean plasma conc.
[9] = male, C57BL/6, mouse, in vivo, ip, 10 mg/kg, Plasma concentration, individual animal
[10] = male, C57BL/6, mouse, in vivo, iv, 2 mg/kg
[11] = male, C57BL/6, mouse, in vivo, iv, 2 mg/kg, 3 h
[12] = male, C57BL/6, mouse, in vivo, iv, 2 mg/kg, 6 h
[13] = male, C57BL/6, mouse, in vivo, iv, 2 mg/kg, 12 h
[14] = male, C57BL/6, mouse, in vivo, iv, 2 mg/kg, 24 h
[15] = male, C57BL/6, mouse, in vivo, iv, 2 mg/kg, Brain concentration, individual animal
[16] = male, C57BL/6, mouse, in vivo, iv, 2 mg/kg, Mean brain conc.
[17] = male, C57BL/6, mouse, in vivo, iv, 2 mg/kg, Mean plasma conc.
[18] = male, C57BL/6, mouse, in vivo, iv, 2 mg/kg, Plasma concentration, individual animal
[19] = male, C57BL/6, mouse, in vivo, po, 10 mg/kg
[20] = male, C57BL/6, mouse, in vivo, po, 10 mg/kg, 12 h
[21] = male, C57BL/6, mouse, in vivo, po, 10 mg/kg, 24 h
[22] = male, C57BL/6, mouse, in vivo, po, 10 mg/kg, Brain concentration, individual animal
[23] = male, C57BL/6, mouse, in vivo, po, 10 mg/kg, Mean brain conc.
[24] = male, C57BL/6, mouse, in vivo, po, 10 mg/kg, Mean plasma conc.
[25] = male, C57BL/6, mouse, in vivo, po, 10 mg/kg, Plasma concentration, individual animal
[26] = male, C57BL/6, mouse, in vivo, IV 2 mg/kg
[27] = male, C57BL/6, mouse, plasma, IP 10 mg/kg
[28] = male, C57BL/6, mouse, plasma, IV 2 mg/kg
[29] = male, C57BL/6, mouse, plasma, PO 10 mg/kg

## [2H]C1([2H])Oc2ccc(Nc3nc(-c4c(C)nc5ccccn45)cs3)cc2O1 [Compound 17, N-(benzo[d][1,3]dioxol-5-yl-2,2-d2)-4-(2-methylimidazo[1,2-c]pyridin-3-yl)thiazol-2-amine hydrochloride]
PO 10 mg/kg, AUClast considered, hydrochloride, 10 mg/kg
  Oral bioavailability, % F: ~100%
brain, IP 10 mg/kg
  AUClast: 360.87 ng·h/g
brain, IV 2 mg/kg
  AUClast: 97.08 ng·h/g
brain, PO 10 mg/kg
  AUCinf: 204.06 ng·h/g
  AUClast: 171.84 ng·h/g
male, C57BL/6, mouse, brain, ip, 10 mg/kg, IP 10 mg/kg, 0.08 hr
  Kp at 0.08 h: 0.61
[1]
  Kp at 0.35 h: 0.52
  Kp at 1 h: 0.39
  Kp at 3 h: 1.1
  Kp at 6 h: 0.59
male, C57BL/6, mouse, brain, ip, 10 mg/kg, IP 10 mg/kg, read-out: brain-to-plasma ratio, range over time
  Kp: 0.39 to 1.1
male, C57BL/6, mouse, brain, iv, 2 mg/kg, IV 2 mg/kg, read-out: brain-to-plasma ratio, range over time
  Kp: 0.18 to 4.03
male, C57BL/6, mouse, brain, po, 10 mg/kg, PO 10 mg/kg, 0.08 hr
  Kp at 0.08 h: 0.33
[2]
  Kp at 0.35 h: 0.32
  Kp at 1 h: 0.48
  Kp at 3 h: 0.32
  Kp at 6 h: 0.23
male, C57BL/6, mouse, brain, po, 10 mg/kg, PO 10 mg/kg, read-out: brain-to-plasma ratio, range over time
  Kp: 0.23 to 0.48
male, C57BL/6, mouse, brain, po, 10 mg/kg, summary data, read-out: Brain to plasma ratio following a single oral dose
  Kp: 0.48
[3]
  Brain concentrations quantifiable up to: up to 6 hr
  Plasma concentrations quantifiable up to: up to 6 hr
[4]
  Brain concentration, individual animal: 0.00 ng/g
  Plasma concentration, individual animal: 0.00 ng/mL
[5]
  Brain concentration, individual animal: 0.00 ng/g
  Plasma concentration, individual animal: 0.00 ng/mL
[6]
  concentration at 0.08 h: 285 ng/g
  concentration at 0.35 h: 291 ng/g
  concentration at 1 h: 65.9 ng/g
  concentration at 12 h: 0 ng/g
  concentration at 24 h: 0 ng/g
[7]
  concentration at 0.35 h: 236 ng/g
  concentration at 1 h: 90.3 ng/g
  concentration at 3 h: 82 ng/g
  concentration at 6 h: 26 ng/g
  concentration at 12 h: 0 ng/g
  concentration at 24 h: 0 ng/g
[8]
  concentration at 0.35 h: 458 ng/mL
  concentration at 1 h: 232 ng/mL
  concentration at 3 h: 74.9 ng/mL
  concentration at 6 h: 43.7 ng/mL
  concentration at 12 h: 0 ng/mL
  concentration at 24 h: 0 ng/mL
[9]
  concentration at 0.08 h: 530 ng/mL
  concentration at 0.35 h: 478 ng/mL
  concentration at 1 h: 223 ng/mL
  concentration at 12 h: 0 ng/mL
  concentration at 24 h: 0 ng/mL
[10]
  Brain concentrations quantifiable up to: up to 1 hr
  Vss, fold more than normal volume of total body water (0.7 L/kg): 6.3 fold
[11]
  Brain concentration, individual animal: 0.00 ng/g
  Plasma concentration, individual animal: 0.00 ng/mL
[12]
  Brain concentration, individual animal: 0.00 ng/g
  Plasma concentration, individual animal: 0.00 ng/mL
[13]
  Brain concentration, individual animal: 0.00 ng/g
  Plasma concentration, individual animal: 0.00 ng/mL
[14]
  Brain concentration, individual animal: 0.00 ng/g
  Plasma concentration, individual animal: 0.00 ng/mL
[15]
  concentration at 0.08 h: 44.7 ng/g
  concentration at 1 h: 17.1 ng/g
  concentration at 3 h: 0 ng/g
  concentration at 6 h: 0 ng/g
  concentration at 12 h: 0 ng/g
  concentration at 24 h: 0 ng/g
[16]
  concentration at 0.08 h: 44.9 ng/g
  concentration at 0.35 h: 180 ng/g
  concentration at 1 h: 13.8 ng/g
  concentration at 3 h: 0 ng/g
  concentration at 6 h: 0 ng/g
  concentration at 12 h: 0 ng/g
  concentration at 24 h: 0 ng/g
[17]
  concentration at 0.08 h: 256 ng/mL
  concentration at 0.35 h: 44.8 ng/mL
  concentration at 1 h: 9.57 ng/mL
  concentration at 3 h: 0 ng/mL
  concentration at 6 h: 0 ng/mL
  concentration at 12 h: 0 ng/mL
  concentration at 24 h: 0 ng/mL
[18]
  concentration at 0.08 h: 260 ng/mL
  concentration at 0.35 h: 41.5 ng/mL
  concentration at 3 h: 0 ng/mL
  concentration at 6 h: 0 ng/mL
  concentration at 12 h: 0 ng/mL
  concentration at 24 h: 0 ng/mL
[19]
  Brain concentrations quantifiable up to: up to 6 hr
  Plasma concentrations quantifiable up to: up to 6 hr
[20]
  Brain concentration, individual animal: 0.00 ng/g
  Plasma concentration, individual animal: 0.00 ng/mL
[21]
  Brain concentration, individual animal: 0.00 ng/g
  Plasma concentration, individual animal: 0.00 ng/mL
[22]
  concentration at 0.35 h: 43.6 ng/g
  concentration at 3 h: 28.1 ng/g
  concentration at 12 h: 0 ng/g
  concentration at 24 h: 0 ng/g
[23]
  concentration at 0.35 h: 53 ng/g
  concentration at 1 h: 51.9 ng/g
  concentration at 3 h: 20.5 ng/g
  concentration at 6 h: 10.5 ng/g
  concentration at 12 h: 0 ng/g
  concentration at 24 h: 0 ng/g
[24]
  concentration at 0.35 h: 163 ng/mL
  concentration at 1 h: 109 ng/mL
  concentration at 3 h: 63.5 ng/mL
  concentration at 6 h: 45.5 ng/mL
  concentration at 12 h: 0 ng/mL
  concentration at 24 h: 0 ng/mL
[25]
  concentration at 3 h: 62.6 ng/mL
  concentration at 12 h: 0 ng/mL
  concentration at 24 h: 0 ng/mL
male, C57BL/6, mouse, in vivo, IP 10 mg/kg, 0.08 hr, read-out: Mean brain conc.
  concentration at 0.08 h: 288 ng/g
male, C57BL/6, mouse, in vivo, IP 10 mg/kg, 0.08 hr, read-out: Mean plasma conc.
  concentration at 0.08 h: 469 ng/mL
male, C57BL/6, mouse, in vivo, IV 2 mg/kg, 0.08 hr
  Kp at 0.08 h: 0.18
[26]
  Kp at 0.35 h: 4.03
  Kp at 1 h: 1.45
male, C57BL/6, mouse, in vivo, PO 10 mg/kg, 0.08 hr, read-out: Mean brain conc.
  concentration at 0.08 h: 67.3 ng/g
male, C57BL/6, mouse, in vivo, PO 10 mg/kg, 0.08 hr, read-out: Mean plasma conc.
  concentration at 0.08 h: 207 ng/mL
male, C57BL/6, mouse, in vivo, brain, IP 10 mg/kg
  Cmax: 288 ng/g
male, C57BL/6, mouse, in vivo, brain, PO 10 mg/kg
  Cmax: 67.3 ng/g
male, C57BL/6, mouse, in vivo, plasma, IP 10 mg/kg
  Cmax: 469 ng/mL
male, C57BL/6, mouse, in vivo, plasma, PO 10 mg/kg
  Cmax: 207 ng/mL
male, C57BL/6, mouse, plasma, po, 10 mg/kg, PO 10 mg/kg, AUClast considered, read-out: Oral bioavailability, % F
  bioavailability: > 100%
male, C57BL/6, mouse, plasma, po, 10 mg/kg, summary data, read-out: Oral bioavailability
  bioavailability: > 100%
male, C57BL/6, mouse, brain, IP 10 mg/kg
  Tmax: 4.8 min
male, C57BL/6, mouse, brain, PO 10 mg/kg
  Tmax: 4.8 min
[27]
  AUC(0-inf): 786 ng·h/mL
  AUC(0-t): 675 ng·h/mL
  Tmax: 4.8 min
[28]
  AUC(0-inf): 88.2 ng·h/mL
  AUC(0-t): 85.7 ng·h/mL
male, C57BL/6, mouse, plasma, IV 2 mg/kg, read-out: CL, plasma clearance
  clearance: 378 mL/min/kg
male, C57BL/6, mouse, plasma, IV 2 mg/kg, read-out: T1/2, terminal elimination half-life (converted)
  half-life: 12.6 min
male, C57BL/6, mouse, plasma, IV 2 mg/kg, read-out: Vss
  Vd: 4.4 L/kg
[29]
  AUC(0-t): 482 ng·h/mL
  Tmax: 4.8 min
mouse, in vivo, iv, 10 mg/kg
  mortality immediately after dose administration: mortality was observed in six animals
Summary data, hydrochloride
  Oral bioavailability: 112%
